Read-outs that look alike come from different tables or passages of the source.
Biological target: c-Met (Homo sapiens, UniProt P08581)
Assay: Ki determination for the inhibition of c-Met kinase activity (standard coupled enzyme system)
Format: biochemical
Settings: coupled enzyme system, 200 μM ATP, 80 nM c-Met, 30° C., read-out: c-Met Ki
Protocol: Ki Determination for the Inhibition of c-Met
Reactions were carried out in a solution containing 100 mM HEPES (pH 7.5), 10 mM MgCl2, 25 mM NaCl, 300 μM NADH, 1 mM DTT, and 1.5% DMSO. Final substrate concentrations in the assay were 200 μM ATP (Sigma Chemicals, St Louis, Mo.) and 10 μM polyGluTyr (Sigma Chemical Company, St. Louis). Reactions were carried out at 30° C. and 80 nM c-Met. Final concentrations of the components of the coupled enzyme system were 2.5 mM phosphoenolpyruvate, 300 μM NADH, 30 μg/ml pyruvate kinase and 10 μg/ml lactate dehydrogenase.
An assay stock buffer solution was prepared containing all of the reagents listed above with the exception of ATP and a test compound of the present invention. […] The reaction was initiated by the addition of 20 μL of ATP (final concentration 200 μM). Rates of reaction were obtained using a Molecular Devices Spectramax plate reader (Sunnyvale, Calif.) over 10 minutes at 30° C. The Ki values were determined from the rate data as a function of inhibitor concentration.

Sequence of c-Met (P08581 25-1390): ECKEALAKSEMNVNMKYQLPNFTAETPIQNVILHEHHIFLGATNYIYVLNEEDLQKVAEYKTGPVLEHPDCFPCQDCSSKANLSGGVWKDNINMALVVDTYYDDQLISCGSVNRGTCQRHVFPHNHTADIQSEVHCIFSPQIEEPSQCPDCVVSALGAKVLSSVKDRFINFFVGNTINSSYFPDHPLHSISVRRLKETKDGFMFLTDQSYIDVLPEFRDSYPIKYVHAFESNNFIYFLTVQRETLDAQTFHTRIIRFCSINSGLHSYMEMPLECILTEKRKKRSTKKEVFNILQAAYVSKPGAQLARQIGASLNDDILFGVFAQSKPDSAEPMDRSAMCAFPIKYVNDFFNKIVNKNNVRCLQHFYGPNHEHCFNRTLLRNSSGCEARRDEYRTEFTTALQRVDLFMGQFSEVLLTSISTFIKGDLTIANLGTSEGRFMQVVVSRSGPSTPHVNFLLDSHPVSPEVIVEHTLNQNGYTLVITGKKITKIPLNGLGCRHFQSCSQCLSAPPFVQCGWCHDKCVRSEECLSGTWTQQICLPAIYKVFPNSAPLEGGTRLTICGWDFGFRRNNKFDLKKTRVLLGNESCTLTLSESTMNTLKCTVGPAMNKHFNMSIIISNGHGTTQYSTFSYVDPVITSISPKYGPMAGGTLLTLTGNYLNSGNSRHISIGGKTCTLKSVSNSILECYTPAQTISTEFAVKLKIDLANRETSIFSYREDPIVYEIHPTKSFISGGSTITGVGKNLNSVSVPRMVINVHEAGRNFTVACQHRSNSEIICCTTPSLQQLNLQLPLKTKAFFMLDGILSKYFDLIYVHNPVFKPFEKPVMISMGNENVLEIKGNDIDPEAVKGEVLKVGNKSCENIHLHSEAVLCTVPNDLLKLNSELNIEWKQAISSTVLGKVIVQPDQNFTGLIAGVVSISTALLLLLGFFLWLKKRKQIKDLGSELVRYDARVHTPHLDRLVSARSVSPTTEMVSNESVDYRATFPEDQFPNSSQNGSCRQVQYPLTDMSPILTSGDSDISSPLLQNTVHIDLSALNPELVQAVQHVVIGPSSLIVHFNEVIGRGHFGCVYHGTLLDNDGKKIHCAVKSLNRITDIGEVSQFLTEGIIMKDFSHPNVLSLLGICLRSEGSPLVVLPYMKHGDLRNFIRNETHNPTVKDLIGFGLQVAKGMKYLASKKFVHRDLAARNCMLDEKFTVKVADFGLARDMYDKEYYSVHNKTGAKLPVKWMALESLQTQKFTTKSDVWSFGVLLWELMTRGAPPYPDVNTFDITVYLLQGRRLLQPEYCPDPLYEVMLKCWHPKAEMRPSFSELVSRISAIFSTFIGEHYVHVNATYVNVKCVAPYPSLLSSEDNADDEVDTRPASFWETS

Row | Ki (10 μM polyGluTyr) | Ki | Structure (SMILES)
1 | > 2000 nM |  | O=C(Nc1ccc(F)cc1)Nc1nn2c(Cc3ccc(O)cc3)nnc2s1 [Compound 114]
2 |  | 100 to 2000 nM | Clc1cccc(Nc2ccc3nnc(CNc4ccc5[nH]ncc5c4)n3n2)c1 [Compound 488]
3 |  | > 2000 nM | COc1cc(OC)c(NCc2nnc3ccc(Nc4cccc(Cl)c4)nn23)cc1Cl [Compound 345]
4 | 100 to 2000 nM |  | COc1ccc(Cc2nnc3ccc(Nc4cccc(C(F)(F)F)c4)nn23)cc1 [Compound 225]
5 |  | > 2000 nM | Clc1cccc(Nc2ccc3nnc(CNc4ccc5cc[nH]c5c4)n3n2)c1 [Compound 477]
6 |  | 100 to 2000 nM | CCOC(=O)C1=Nn2c(Cc3ccc(O)cc3)nnc2SC1 [Compound 534]
7 |  | 100 to 2000 nM | Clc1cccc(Nc2ccc3nnc(Cc4cc5c(cc4Cl)OCO5)n3n2)c1 [Compound 504]
8 |  | > 2000 nM | COc1ccc(NCc2nnc3ccc(Nc4cccc(Cl)c4)nn23)cc1 [Compound 350]
9 | < 100 nM |  | CC(c1ccc(O)cc1)c1nnc2sc(Nc3cccc(C(F)(F)F)c3)nn12 (stereo not drawn) [Compound 138]
10 |  | 100 to 2000 nM | Oc1ccc(Cc2nnc3ccc(NC4CCC4)nn23)cc1 [Compound 330]
11 | < 100 nM |  | Cc1cc(Nc2ccc3nnc(Cc4ccc(O)cc4)n3n2)ccc1Cl [Compound 215]
12 | < 100 nM |  | CC(c1ccc(O)cc1)c1nnc2sc(Nc3ccccc3Cl)nn12 (stereo not drawn) [Compound 66]
13 |  | < 100 nM | c1csc(C2=Nn3c(Cc4ccc5c(c4)OCO5)nnc3SC2)c1 [Compound 544]
14 |  | > 2000 nM | Fc1ccc(NCc2nnc3ccc(Nc4cccc(Cl)c4)nn23)cc1 [Compound 343]
15 |  | < 100 nM | Oc1ccc(Cc2nnc3ccc(Nc4cc(Cl)cc(Cl)c4)nn23)cc1 [Compound 294]
16 | < 100 nM |  | Oc1ccc(Cc2nnc3sc(Nc4cc(Cl)cc(Cl)c4)nn23)cc1 [Compound 50]
17 |  | 100 to 2000 nM | COC(=O)c1ccc(NCc2nnc3ccc(Nc4cccc(Cl)c4)nn23)nc1 [Compound 479]
18 | 100 to 2000 nM |  | COc1ccc(Cc2nnc3ccc(Nc4cccc(C(C)O)c4)nn23)cc1 (stereo not drawn) [Compound 257]
19 |  | > 2000 nM | CS(=O)(=O)Nc1ccc(Cc2nnc3ccc(Nc4cccc(Cl)c4)nn23)cc1 [Compound 369]
20 |  | < 100 nM | Oc1ccc(Cc2nnc3ccc(Sc4cccc(Cl)c4)nn23)cc1 [Compound 305]
21 |  | < 100 nM | C[C@@H](c1ccc(O)cc1)c1nnc2ccc(NC3CC4CCC3C4)nn12 (stereo partly drawn) [Compound 420]

Row | Ki (10 μM polyGluTyr) | Ki | Structure (SMILES)
22 |  | > 2000 nM | Oc1cccc2ccc(NCc3nnc4ccc(Nc5cccc(Cl)c5)nn34)nc12 [Compound 454]
23 |  | 100 to 2000 nM | COc1ccc(Cc2nnc3ccc(Nc4cc(C)cc(C)c4)nn23)cc1 [Compound 297]
24 | 100 to 2000 nM |  | CN(C)c1ccc(Nc2nn3c(Cc4ccc(O)cc4)nnc3s2)cc1 [Compound 74]
25 | < 100 nM |  | FC(F)(F)c1cccc(Nc2nn3c(Cn4ccc5ncccc54)nnc3s2)c1 [Compound 136]
26 | 100 to 2000 nM |  | Oc1ccc(Cc2nnc3sc(NCC4CCCO4)nn23)cc1 (stereo not drawn) [Compound 17]
27 | 100 to 2000 nM |  | Oc1ccc(Cc2nnc3ccc(-c4ccccc4)nn23)cc1 [Compound 176]
28 |  | > 2000 nM | Nc1cc(C(F)(F)F)ccc1OCc1nnc2ccc(Nc3cccc(Cl)c3)nn12 [Compound 429]
29 | < 100 nM |  | Oc1ccc(Cc2nnc3ccc(Nc4cccc(Cl)c4)nn23)cc1Cl [Compound 237]
30 |  | 100 to 2000 nM | Oc1ccc(Cc2nnc3ccc(N4CCc5ccccc5C4)nn23)cc1 [Compound 422]
31 | > 2000 nM |  | CN(C)c1ccc(Cc2nnc3ccc(-c4ccccc4)nn23)cc1 [Compound 212]
32 |  | > 2000 nM | N#Cc1ccc(OCc2nnc3ccc(Nc4cccc(Cl)c4)nn23)cc1 [Compound 379]
33 |  | > 2000 nM | COc1ccc(Cc2nnc3ccc(Nc4cccc(Cl)c4)nn23)cc1C(N)=O [Compound 496]
34 | > 2000 nM |  | Oc1ccc(Cc2nnc3sc(NCCN4CCOCC4)nn23)cc1 [Compound 15]
35 |  | < 100 nM | C[C@H](c1ccc(O)cc1)c1nnc2ccc(Nc3cccc(Cl)c3)nn12 [Compound 319]
36 | 100 to 2000 nM |  | COc1cc(Cc2nnc3sc(Nc4ccccc4)nn23)ccc1O [Compound 26]
37 | < 100 nM |  | CC(c1nnc2sc(Nc3cccc(Cl)c3)nn12)n1ccc2ncccc21 (stereo not drawn) [Compound 161]
38 | > 2000 nM |  | N#Cc1cccc(Nc2nn3c(Cc4ccc(O)cc4)nnc3s2)c1 [Compound 18]
39 | < 100 nM |  | Oc1ccc(Cc2nnc3sc(Nc4ccc(F)cc4)nn23)cc1 [Compound 46]
40 | < 100 nM |  | Oc1ccc(Cc2nnc3ccc(Nc4cccc(F)c4)nn23)cc1Cl [Compound 219]
41 | 100 to 2000 nM |  | COc1ccc([C@H](C)c2nnc3sc(Nc4cccc(Cl)c4)nn23)cc1 [Compound 157]
42 |  | 100 to 2000 nM | CCn1nccc1Nc1ccc2nnc([C@@H](C)c3ccc(O)cc3)n2n1 [Compound 497]

Row | Ki (10 μM polyGluTyr) | Ki | Structure (SMILES)
43 |  | 100 to 2000 nM | Clc1cccc(Nc2ccc3nnc(Cc4ccc(Cl)nc4)n3n2)c1 [Compound 354]
44 |  | > 2000 nM | Clc1cccc(Nc2ccc3nnc(Cn4ncc5ccccc54)n3n2)c1 [Compound 489]
45 |  | 100 to 2000 nM | Oc1ccc(Cc2nnc3ccc(Nc4nc5ccc(Cl)cc5s4)nn23)cc1 [Compound 481]
46 |  | > 2000 nM | COc1ccc(NCc2nnc3ccc(Nc4cccc(Cl)c4)nn23)cc1OC [Compound 337]
47 | < 100 nM |  | Oc1ccc(Cc2nnc3sc(Nc4cc(F)cc(F)c4)nn23)cc1Cl [Compound 104]
48 | 100 to 2000 nM |  | Cc1cccc(Nc2nn3c(Cn4ccc5ncccc54)nnc3s2)c1 [Compound 135]
49 | > 2000 nM |  | Oc1ccc(CCc2nnc3sc(Nc4cccc(F)c4)nn23)cc1 [Compound 93]
50 |  | > 2000 nM | Clc1cccc(Nc2ccc3nnc(COc4c[nH]c5ccccc45)n3n2)c1 [Compound 491]
51 |  | < 100 nM | Oc1ccc(Cc2nnc3ccc(Nc4cccc(C(F)(F)F)c4)nn23)cc1F [Compound 292]
52 | 100 to 2000 nM |  | COc1cccc(Nc2nn3c(Cc4ccc(O)c(F)c4)nnc3s2)c1 [Compound 35]
53 | 100 to 2000 nM |  | Oc1ccc(Cc2nnc3ccc(NC4c5ccccc5CC4O)nn23)cc1 (stereo not drawn) [Compound 217]
54 |  | 100 to 2000 nM | COc1cccc(Nc2ccc3nnc(Cc4ccc(O)c(F)c4)n3n2)c1 [Compound 293]
55 |  | 100 to 2000 nM | Clc1cccc(Nc2ccc3nnc(Cn4cncn4)n3n2)c1 [Compound 517]
56 | < 100 nM |  | Oc1ccc(Cc2nnc3sc(Nc4ccc(C(F)(F)F)cc4)nn23)cc1 [Compound 43]
57 | 100 to 2000 nM |  | Oc1ccc(Cc2nnc3ccc(N4CCC(CCc5ccccc5)C4)nn23)cc1 (stereo not drawn) [Compound 205]
58 |  | 100 to 2000 nM | C[C@@H](c1ccc(O)cc1)c1nnc2ccc(Cl)nn12 [Compound 501]
59 | 100 to 2000 nM |  | CC1CCC(Nc2ccc3nnc(Cc4ccc(O)cc4)n3n2)CC1 (stereo not drawn) [Compound 271]
60 | > 2000 nM |  | c1csc(Cc2nn3c(Cc4ccc5c(c4)OCO5)nnc3s2)c1 [Compound 49]
61 | < 100 nM |  | Cc1ccc(Nc2nn3c(Cc4ccc(O)cc4)nnc3s2)cc1 [Compound 60]
62 |  | 100 to 2000 nM | Clc1ccc(Cl)c(Nc2ccc3nnc(Cc4ccc5c(c4)OCO5)n3n2)c1 [Compound 363]
63 | < 100 nM |  | CC(c1ccc(O)cc1)c1nnc2sc(Nc3cccc(F)c3)nn12 (stereo not drawn) [Compound 100]

Row | Ki (10 μM polyGluTyr) | Ki | Structure (SMILES)
64 | < 100 nM |  | Fc1cccc(Nc2nn3c(Cc4ccc5c(c4)OCO5)nnc3s2)c1 [Compound 107]
65 |  | 100 to 2000 nM | Oc1cccc(Cc2nnc3ccc(Nc4cccc(Cl)c4)nn23)c1 [Compound 365]
66 |  | > 2000 nM | Clc1cccc(Nc2ccc3nnc(Cc4c[nH]c5ccccc45)n3n2)c1 [Compound 460]
67 | 100 to 2000 nM |  | Clc1ccc(Nc2nn3c(Cc4ccc5c(c4)OCO5)nnc3s2)cc1 [Compound 56]
68 | 100 to 2000 nM |  | Oc1ccc(Cc2nnc3ccc(-c4ccccc4)nn23)cc1F [Compound 213]
69 |  | < 100 nM | C[C@@H](c1ccc(O)cc1)c1nnc2ccc(NC3CCCCC3)nn12 [Compound 419]
70 | 100 to 2000 nM |  | Cc1cc(C)cc(Nc2ccc3nnc(Cc4ccc5c(c4)OCO5)n3n2)c1 [Compound 248]
71 | 100 to 2000 nM |  | Oc1cccc(Cc2nnc3sc(Nc4cccc(C(F)(F)F)c4)nn23)c1 [Compound 137]
72 | 100 to 2000 nM |  | Oc1ccc(Cc2nnc3ccc(N[C@H]4CC[C@H](O)CC4)nn23)cc1 [Compound 272]
73 | < 100 nM |  | Oc1ccc(Cc2nnc3ccc(Nc4cccc(Cl)c4)nn23)cc1 [Compound 185]
74 | 100 to 2000 nM |  | CCC(C)Nc1ccc2nnc(Cc3ccc(O)cc3)n2n1 (stereo not drawn) [Compound 278]
75 |  | 100 to 2000 nM | Nc1ncnc2c1ccn2Cc1nnc2ccc(Nc3cccc(Cl)c3)nn12 [Compound 452]
76 |  | < 100 nM | C[C@@H](c1ccc(O)cc1)c1nnc2ccc(Nc3cc(Cl)cnc3Cl)nn12 [Compound 509]
77 | 100 to 2000 nM |  | Clc1ccccc1Nc1nn2c(Cc3ccc4c(c3)OCO4)nnc2s1 [Compound 68]
78 | > 2000 nM |  | NC(=O)[C@H]1CCC[C@H]1Nc1ccc2nnc(Cc3ccc(O)cc3)n2n1 [Compound 203]
79 | > 2000 nM |  | O=c1ccn(Cc2nnc3ccc(-c4ccccc4)nn23)cc1 [Compound 218]
80 |  | < 100 nM | Oc1ccc(Cc2nnc3n2N=C(c2ccc4c(c2)OCCO4)CS3)cc1 [Compound 533]
81 |  | > 2000 nM | CC(=O)Nc1ccc(OCc2nnc3ccc(Nc4cccc(Cl)c4)nn23)cc1 [Compound 469]
82 |  | 100 to 2000 nM | CC(=O)Nc1cccc(OCc2nnc3ccc(Nc4cccc(Cl)c4)nn23)c1 [Compound 468]
83 |  | > 2000 nM | CCOc1cccc(NCc2nnc3ccc(Nc4cccc(Cl)c4)nn23)c1 [Compound 339]
84 |  | < 100 nM | O=c1ccc(Cc2nnc3ccc(Nc4cccc(Cl)c4)nn23)c[nH]1 [Compound 502]
